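Interpolation was linear, between the two tested concentrations surrounding the appropriate level; five concentrations were tested over 48 hours in 96-well plates. TGI: concentration producing complete growth inhibition.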
Assays:
Assay in all cases: NCI anticancer screen, dose series, 48 h
IGROV1 ovarian = system: IGROV1 ovarian
CAKI-1 renal = system: CAKI-1 renal
DU-145 prostate = system: DU-145 prostate
ACHN renal = system: ACHN renal
TK-10 renal = system: TK-10 renal
A549 NSCLC = system: A549 NSCLC
NCI/ADR-RES ovarian = system: NCI/ADR-RES ovarian
SNB-75 CNS = system: SNB-75 CNS
OVCAR-4 ovarian = system: OVCAR-4 ovarian
SR leukemia = system: SR leukemia
KM12 colon = system: KM12 colon

Compound	TGI (IGROV1 ovarian) [µM]	TGI (CAKI-1 renal) [µM]	TGI (DU-145 prostate) [µM]	TGI (ACHN renal) [µM]	TGI (TK-10 renal) [µM]	TGI (A549 NSCLC) [µM]	TGI (NCI/ADR-RES ovarian) [µM]	TGI (SNB-75 CNS) [µM]	TGI (OVCAR-4 ovarian) [µM]	TGI (SR leukemia) [µM]	TGI (KM12 colon) [µM]
O=c1[nH]c(Nc2ccc(Br)c(C(F)(F)F)c2)nc2nc[nH]c12	> 100	> 100	> 100	> 100	> 100	> 100	> 100	> 100	> 100	> 100	> 100
CN(C)Cc1cc(Cl)c(O)c(CN(C)C)c1	> 100	> 100	> 100	> 100	> 100	> 100	> 100	> 100	> 100	> 100	> 100
O=C1C(Cl)=C(Cl)C(=O)C(CCNc2nccs2)=C1Cl	42.2	37.1	> 100	63.2	63.6	> 100	58.7	69.5	> 100	> 100	> 100
NCC(=O)Nc1ccccc1	> 100	> 100	> 100	> 100	> 100	> 100	> 100	> 100	> 100	> 100	> 100
Cc1ncn(-c2ccccc2O)c1C	> 100	> 100	> 100	> 100	> 100	> 100	> 100	> 100	> 100	> 100	> 100
NC1=Nc2ccccc2Sc2nncn21	> 100	> 100	> 100	> 100	> 100	> 100	> 100	> 100	> 100	> 100	> 100
COC(=O)c1ccc(NCc2cc(OC)ccc2OC)cc1	> 100	> 100	> 100	> 100	> 100	> 100	> 100	> 100	> 100	> 100	> 100
CCOP(=O)(CC(=O)C1CC1)OCC	> 100	> 100	> 100	> 100	> 100	> 100	> 100	> 100	> 100	> 100	> 100
COc1cc(C2C=C(c3ccccc3)Oc3cc4c(cc32)OCO4)cc(OC)c1OC (stereo not drawn)	> 100	> 100	4.58	> 100	> 100	> 100	> 15.2	> 90.8	> 100	> 100	> 30.6
COc1ccc(C2SCC(=O)N2c2ccc(-n3c(-c4ccccc4)nc4ccccc4c3=O)cc2)cc1 (stereo not drawn)	> 100	> 100	> 100	> 100	> 100	> 100	> 100	79.3	> 100	> 100	> 100
OC1NC2Nc3ccccc3NC2NC1O (stereo not drawn)	> 100	> 100	> 100	> 100	> 100	> 100	> 100	> 100	> 100	> 100	> 100
O=C(Nc1ccccc1)N(CCN(Cc1ccccc1)C(=O)Nc1ccccc1)CCN(Nc1ccccc1)C(=O)Nc1ccccc1	> 100	> 100	> 100	> 100	> 100	> 100	> 100	> 100	> 100	> 100	> 100
C(=N\c1nc2cc3sc(/N=C/c4ccccc4)nc3cc2s1)/c1ccccc1	> 100	> 100	> 100	> 100	> 100	> 100	> 100	> 100	> 100	> 100	> 100
Cc1nc(-c2ccccc2)cn2c1nc1ccccc12	57.1	62.1	> 100	49.4	> 74.7	34.8	55.7	> 52.2	65.4	> 100	> 70.3
Nn1c(CCCCCCCCc2nnc(-c3c(O)ccc4ccccc34)n2N)nnc1-c1c(O)ccc2ccccc12	> 100	> 100	> 100	> 100	> 100	> 100	> 100	> 100	> 100	> 100	> 100
CCOP(=O)(OCC)Oc1c(OC)c2[nH]c(C(=O)OC)cc2c2c(C(=O)O)c[nH]c12	> 100	> 100	> 100	> 100	> 100	> 100	> 100	> 100	> 100	> 100	81.3
COc1ccc(C(=O)/C=C/c2ccc(OCCCCCCCCCCOc3ccc(/C=C/C(=O)c4ccc(OC)cc4)cc3)cc2)cc1	> 100	> 100	> 100	> 100	> 100	> 100	> 100	> 100	> 100	> 100	> 100
Cn1c(-c2ccco2)ccc1-c1ccc(C=O)o1	> 100	55.2	> 100	> 100	> 100	> 100	> 100	> 100	> 100	> 100	> 100
